Data on 2 compounds can be found in ChEMBL document CHEMBL1154685, “Simple oxidation of pyrimidinylhydrazones to triazolopyrimidines and their inhibition of Shiga toxin trafficking” (Eur J Med Chem, 2010).

The test system of the series is HeLa. Nature of the series: Toxicity in human HeLa cells assessed as inhibition of protein synthesis by [35S]labeled methionine and cysteine incorporation. Type of series: cell-based.

Turning to `Oc1ccc(-c2nc3c4c5c(sc4ncn3n2)CCCC5)cc1`, the Activity result is listed as “Non-toxic”.
As for `COc1cc(/C=N/NC2=C3C4=C(CCCC4)SC3N=CN2)ccc1O` (configuration not stated), the Activity result is reported as “Non-toxic”.
